Key:
female BALB/C mice = assay: Mouse in vivo imaging of Fluc-mRNA LNP formulations; design: average radiation intensity (mRNA expression): unit not given here; details: 10 μg Fluc-mRNA LNP intramuscularly
Experimental: The LNP formulation containing 10 μg Fluc-mRNA (prepared according to Example 4) was injected intramuscularly into female BALB/C mice aged 4 to 6 weeks and weighing 17 to 19 g, and the mice were intraperitoneally injected with fluorescent imaging substrates at specific time points (6 h, 24 h, 48 h and 7 d) after administration. The mice moved freely for 5 minutes, and then the average radiation intensity (corresponding to the fluorescence expression intensity) of the protein expressed by the mRNA carried by the LNP in the mice was detected by IVIS Spectrum small animal in vivo imager. The test results are shown in Tables 14 to 17 and FIGS. 12 to 14.

293T cells [1] = assay: Fluorescence detection of Fluc-mRNA (cell transfection efficiency of LNP formulations); format: cell-based; details: for Relative light unit (RLU): LNP containing 0.3 μg Fluc-mRNA, 24 hours; for Multiples of values that equivalent to YK-201: RLU of YK-201 / RLU of the named lipid; for Multiples of values that equivalent to YK-202: RLU of YK-202 / RLU of the named lipid; for Ratio relative to SM-102: RLU of the named lipid / RLU of SM-102, times that of SM-102; for Multiples of values that equivalent to YK-209: RLU of YK-209 / RLU of the named lipid
Experimental: (§1) Cell recovery and passaging: 293T cells were recovered and cultured in culture dishes to the required cell number.
(§2) Plating: The cells in the culture dish were digested, counted, plated in a 96-well plate at 10,000 cells per well, or in a 12-well plate at 150,000 cells per well, and cultured overnight until the cells adhered to the wall.
(§3) Cell recovery and passage: The method was the same as in Example 3.
(§4) Plating: The method was the same as Example 3.
The LNP formulation containing 0.3 μg Fluc-mRNA (prepared according to Example 4, the LNP formulation carrier components were cationic lipids, neutral lipids, structured lipids and polymer-conjugated lipids at a molar ratio of 49:10:39.5:1.5, and the cationic lipids were cationic lipids listed in Table 1) was added to the cell culture medium of a 96-well plate, and cultured for 24 hours. After that, the corresponding reagents were added according to the instructions of the Gaussia Luciferase Assay Kit, and the fluorescence expression intensity of each well was detected by the IVIS fluorescence detection system. This experiment verified the transfection efficiency of the LNP formulation in the cell, and the specific detection results are shown in Tables 6-9.

293T cells [2] = assay: Cell survival rate assay (CCK-8); format: cell-based; details: LNP containing 1.5 μg Fluc-mRNA, 24 hours, CCK-8
Experimental: as §1, §2, §3, §4
The LNP formulations containing 1.5 μg Fluc-mRNA (prepared according to Example 4, the LNP formulation carrier components are cationic lipids, neutral lipids, structured lipids and polymer-conjugated lipids at a molar ratio of 49:10:39.5:1.5, wherein the cationic lipids are the cationic lipids listed in Table 1) and the Lipofectamine 3000 formulation were added to the cell culture medium of the 96-well plate, and the culture was continued for 24 hours. Then, 10 μL of CCK-8 solution was added to each well, and the culture plate was incubated in the incubator for 1 hour, and the absorbance at 450 nm was measured by a microplate reader.

[3] = Particle size and polydispersity index (PDI) of nanolipid particles, dynamic light scattering; format: physicochemical; details: LNP formulation prepared from the named cationic lipid, 25° C
Experimental: The particle size and polydispersity index (PDI) were determined by dynamic light scattering method using a Malvern laser particle size analyzer. 10 μL of liposome solution was diluted to 1 mL with RNase-free deionized water and added to a sample pool. Each sample was measured three times. The measurement conditions were: 90° scattering angle, 25° C.

[4] = Encapsulation rate, drug loading concentration and total RNA concentration detection (RiboGreen); format: physicochemical; details: LNP formulation of the named lipid
Excerpt: Encapsulation rate is a key quality attribute of liposomes. It refers to the percentage of drug content encapsulated in the lipid bilayer to the total amount of drug added, which can reflect the degree of drug encapsulation in liposomes. The Chinese Pharmacopoeia stipulates that the encapsulation rate should usually not be less than 80%.
The drug loading capacity is the ratio of the amount of drug in the liposome to the total amount of drug and carrier in the liposome. The drug loading capacity directly affects the clinical application dose of the drug, so the larger the drug loading capacity, the more it can meet clinical needs. The drug loading concentration is proportional to the drug loading capacity, and the relative proportion of the drug loading concentration can represent the relative proportion of the drug loading capacity. The relative proportion of the total RNA concentration can represent the relative proportion of the amount of mRNA carried by the LNP formulation.
1×TE buffer, 0.1% Triton X-100 buffer, and RiboGreen reagent (1:200) and mRNA standard stock solution were prepared.
An appropriate amount of sample was taken and added to an appropriate amount of 1×TE buffer, which was diluted to a solution containing about 2.8 μg of the test sample per 1 mL. Then the sample was added to a 96-well plate, where 50 μL of the diluted test sample or mRNA standard stock solution was added to each well, and then added with 1×TE buffer and 0.1% Triton X-100 buffer. The samples were incubated at 37° C. for 10 minutes, and 100 μL of RiboGreen reagent (1:200) was added to each well of the 96-well plate. The plate was centrifuged, and read using an ELISA reader, and the data was processed.

Compound	average radiation intensity (mRNA expression) (female BALB/C mice; 6 h)	average radiation intensity (mRNA expression) (female BALB/C mice; 24 h)	average radiation intensity (mRNA expression) (female BALB/C mice; 48 h)	average radiation intensity (mRNA expression) (female BALB/C mice; 7 d)	Relative light unit (RLU) (293T cells [1])	Multiples of values that equivalent to YK-201 (293T cells [1])	Multiples of values that equivalent to YK-202 (293T cells [1])	Ratio relative to SM-102 (293T cells [1])	Cell survival rate (293T cells [2])	Multiples of values that equivalent to YK-209 (293T cells [1])	PDI [3]	Particle size [3]	Drug loading concentration [4]	Encapsulation rate [4]	Total RNA concentration [4]
CCCCCCCCC(CCCCCCCC)OC(=O)CCCCCCCN(CCO)CCCCCCCC(=O)OCCC(CCCCCC)CCCCCC [Compound 21, 9-heptadecyl-8-(8-((3-hexylnonyl)oxy)-8-oxooctyl)-((2-hydroxyethyl)amino)octanoate, reference compound]	600390	108000	30025	6102	1421028 RLU	20.04	21.08	0.85	69.02%						
CCCCCCCCCCCOC(=O)CCCCCN(CCCCCCCC(=O)OCCC(CCCCCC)CCCCCC)CCN(C)CCO [YK-203]					3869614 RLU	7.36	7.74	2.32	35.56%	5.44	23.7%	235 nm	38.38 µg/mL	91.0%	42.19 µg/mL
CCCCCCCCCCCOC(=O)CCCCCN(CCCCCCCC(=O)OC(CCCCCCC)CCCCCCC)CCN(CC)CCO [YK-205]					1029168 RLU	27.68	29.11	0.62	58.92%	20.46	17.7%	219 nm	30.02 µg/mL	68.4%	43.92 µg/mL
CCCCCCCCCCOC(=O)CCCN(CCCCCC(=O)OCC(CCCCCCCC)CCCCCCCC)CCN(CC)CCO [YK-208]					3858487 RLU	7.38	7.76	2.32	46.68%	5.46	24.4%	167 nm	37.80 µg/mL	88.2%	42.84 µg/mL
CCCCCCCCC(CCCCCCCC)OC(=O)CCCCCN(CCCCCC(=O)OC(CCCCCCCC)CCCCCCCC)CCN(C)CCO [YK-210, bis(heptadecan-9-yl)-6,6′-((2-(2-hydroxyethyl(methyl)amino)ethyl)azadialkyl)dihexanoate]					4628355 RLU	6.15	6.47	2.78	38.38%	4.55	22.9%	224 nm	36.50 µg/mL	85.6%	42.62 µg/mL
CCCCCCC(CCCCCC)CCOC(=O)CCCCCN(CCCCCC(=O)OCCC(CCCCCC)CCCCCC)CCN(C)CCO [YK-211, bis(3-hexylnonyl)-6,6-((2-(2-hydroxyethyl(methyl)amino)ethyl)azadialkyl)dihexanoate]					1370100 RLU	20.79	21.87	0.82	52.30%	15.37	20.7%	222 nm	42.91 µg/mL	97.7%	43.92 µg/mL
CCCCCCCCCCCOC(=O)CCCCCN(CCCCC(=O)OCC(CCCCCCCC)CCCCCCCC)CCNCC [YK-226]					57660 RLU	493.98	519.55	0.03	27.90%	365.22					

Reference: patent US20260007601A1, “IONIZABLE CATIONIC LIPID COMPOUND AND COMPOSITION FOR DELIVERING NUCLEIC ACID AND USE THEREOF” (BEIJING YOUCAREKECHUANG PHARMACEUTICAL TECHNOLOGY CO., LTD., priority 2023, published 2026)
